The text below walks through data of ChEMBL document CHEMBL1123338, “Synthesis and structure-activity relationship studies of a series of 5-aryl-4,6-dithianonanedioic acids and related compounds: a novel class of leukotriene antagonists” (J Med Chem, 1986).

In experiment [1] the target is Cysteinyl leukotriene receptor (Cavia porcellus). Nature of the experiment: Compound is evaluated for its ability to inhibit [3H]LTD4 binding to Cysteinyl leukotriene D4 receptor in guinea pig lung membranes.
Experiment [2] deals with Cysteinyl leukotriene receptor (Cavia porcellus). Nature of the experiment: In vitro ability to antagonize a leukotriene D4 induced contraction of guinea pig trachea.

What is called Ki is a measure of affinity in units of concentration, obtained from inhibition or displacement. `CCCCCCCCCCCCCOc1ccc(C(SCCC(=O)O)SCCC(=O)O)cc1` had a Ki in experiment [1] above 20 µM.
As to `CCCCCCCCCCC#Cc1ccccc1C(SCCC(=O)O)SCCC(=O)O`, the inhibition constant Ki in experiment [1] was 2.515 µM. Also, in experiment [2], the -Log KB was found to be 5.9.
As for `CCCCCCCCCCCCCCc1ccccc1C(SCCC(=O)O)SCCC(=O)O`, the inhibition constant Ki in experiment [1] was 1.246 µM.
Regarding `O=C(O)CCSC(SCCC(=O)O)c1ccccc1OCCCCCCc1ccccc1`, the Ki in experiment [1] turned out to be 11.526 µM. This compound also returned a -Log KB in experiment [2] of 5.3.
In turn, `CCCCc1ccccc1C(SCCC(=O)O)SCCC(=O)O` yielded an inhibition constant Ki in experiment [1] above 20 µM.
Regarding `C#CCCCCCCCCCCc1ccccc1C(SCCC(=O)O)SCCC(=O)O`, in experiment [1], the Ki was 0.141 µM. The -Log KB in experiment [2] is 6.8.
The like results for `CCCCCCCCCC/C=C/c1ccccc1C(SCCC(=O)O)SCCC(=O)O` were, in that order, 0.491 µM and 5.8.
On to `CCCCCCCCCCCCc1ccccc1C1S[C@H](C(=O)O)[C@H](C(=O)O)S1` (stereo in doubt; 61), for which, in experiment [1], the Ki was found to be 17.578 µM.
With `O=C(O)CCSC(SCCC(=O)O)c1cc(C(F)(F)F)ccc1CCCCCCCCc1ccccc1`, the Ki in experiment [1] is 0.476 µM. The compound further registered a -Log KB in experiment [2] of 7.
Taken in the same sequence, the figures for `CCCCC/C=C/C/C=C/COc1ccccc1C(SCCC(=O)O)SCCC(=O)O` were 1.002 µM and 6.
Consider `CCCCCCCCCCCOc1ccc(C(SCCC(=O)O)SCCC(=O)O)cc1`, for which the Ki in experiment [1] is above 20 µM.
Regarding `CCCc1c(OCCCCCOc2ccccc2C(SCCC(=O)O)SCCC(=O)O)ccc(C(C)=O)c1O`, in experiment [1], the inhibitory constant (Ki) came to 3.149 µM. Besides, the -Log KB in experiment [2] worked out at 6.6.
In turn, `CCCCCCCCCCc1ccc(C(SCCC(=O)O)SCCC(=O)O)cc1` registered an inhibition constant (Ki) in experiment [1] of 7.565 µM.
`CCCCCCCCCCCOc1ccc(OC)cc1C(SCCC(=O)O)SCCC(=O)O` returned a Ki in experiment [1] of 0.579 µM. Moreover, the -Log KB in experiment [2] amounted to 5.9.
For `O=C(O)CCSC(SCCC(=O)O)c1ccccc1OCCCCCCCCCO`, in experiment [1], the Ki was above 20 µM.
Turning to `CCCCCCCCCCCCC#CC(SCCC(=O)O)SCCC(=O)O`, the -Log KB in experiment [2] was found to be 5.7.
The same measure, in the same setting: for `CCCCCCCCCCC#CC(SCC(=O)O)SCC(=O)O` the value was 5.3.
In experiment [1], `CCCCCCCCCOc1ccccc1C(SCCC(=O)O)SCCC(=O)O` returned a Ki of 4.094 µM. This compound had a -Log KB in experiment [2] of 5.8.
Taken in the same sequence, the figures for `CCCCCCCCCCCOc1ccccc1C(C)(SCCC(=O)O)SCCC(=O)O` were above 20 µM and 5.6.
The like results for `CCCCCCCCCCCOc1ccc(O)cc1C(SCCC(=O)O)SCCC(=O)O` were, in that order, 0.156 µM and 6.
Compound `CCCCCCCCCCCCc1ccccc1C(SCCC(=O)O)[S+]([O-])CCC(=O)O` (configuration not stated) returned an inhibition constant (Ki) in experiment [1] of 0.423 µM. Besides, the -Log KB in experiment [2] came out at 5.8.
`CCCCCCCCCCCCc1ccccc1C(SCCCC(=O)O)SCCCC(=O)O` came in with an inhibition constant Ki in experiment [1] of 0.934 µM.
For the compound `CCCCCCCCCCCCc1ccccc1C(SCC(=O)O)SCC(=O)O`, in experiment [1], the inhibition constant Ki was determined as 0.846 µM. This compound also yielded a -Log KB in experiment [2] of 5.9.
Compound `CCCCCCCCCCCCc1ccccc1C(CCCC(=O)O)CCCC(=O)O` came in with a Ki in experiment [1] of 2.337 µM.
In the case of `CCCCCCCCCCC#CC(SCCC(=O)O)SCCC(=O)O`, in experiment [2], the -Log KB came to 6.1.
With `CCCCCCCCC#CC(SCCC(=O)O)SCCC(=O)O`, the -Log KB in experiment [2] came to 5.
With `CCCCCCCCCCCCc1ccccc1C1S[C@@H](C(=O)O)[C@H](C(=O)O)S1`, the Ki in experiment [1] was 0.401 µM.
In experiment [1], `CCCCCCCCCCc1ccccc1C(SCCC(=O)O)SCCC(=O)O` showed a Ki of 1.18 µM. In addition, in experiment [2], the -Log KB came out at 6.5.
Take `CCCCCCCCCCCCCOc1cccc(C(SCCC(=O)O)SCCC(=O)O)c1`: the inhibition constant Ki in experiment [1] worked out at 0.53 µM.
Consider `O=C(O)CCSC(SCCC(=O)O)c1ccccc1CCCCCCCCC1CCCCC1`, for which, in experiment [1], the Ki came out at 1.958 µM. Besides, in experiment [2], the -Log KB came out at 5.5.
With `CCCCC/C=C/C/C=C/COc1cccc(C(SCCC(=O)O)SCCC(=O)O)c1`, the Ki in experiment [1] stood at 0.187 µM. Moreover, the -Log KB in experiment [2] turned out to be 6.2.
The like results for `CCCCCCCCCCCOc1cccc(C(SCCC(=O)O)SCCC(=O)O)c1` were, in that order, 0.078 µM and 6.1.
In turn, `CCCCCCCCCCC[C@@H]1CC(SCCC(=O)O)(SCCC(=O)O)c2ccccc21` gave a Ki in experiment [1] of 2.092 µM.
Turning to `O=C(O)CCSC(SCCC(=O)O)c1ccccc1CCCCCCCCCCCC(F)(F)F`, the inhibitory constant (Ki) in experiment [1] was 0.147 µM. The compound also displayed a -Log KB in experiment [2] of 6.2.
Compound `CCCCCCCCCCC#CC(SCCCC(=O)O)SCCCC(=O)O` yielded a -Log KB in experiment [2] of 5.6.
On to `CCCCCCCCCCCCc1ccccc1C(SCCC(=O)O)SCCC(=O)O`, for which, in experiment [1], the inhibition constant (Ki) was determined as 0.445 µM. Also, the -Log KB in experiment [2] came out at 6.
The like results for `CCCCCCCCCCCOc1ccc([N+](=O)[O-])cc1C(SCCC(=O)O)SCCC(=O)O` were, in that order, 0.303 µM and 6.1.
In turn, `CCCCCCCCCC/C=C\c1ccccc1C(SCCC(=O)O)SCCC(=O)O` registered an inhibitory constant (Ki) in experiment [1] of 1.38 µM.
`O=C(O)CCSC(SCCC(=O)O)c1ccccc1OCCCC1CCCCC1` yielded an inhibition constant (Ki) in experiment [1] of 1.009 µM.
Same read-out and setting: with `CCCCCCCCCCC[C@@H]1CCC(SCCC(=O)O)(SCCC(=O)O)c2ccccc21` the figure was above 20 µM.
`CCCCCCCCc1ccccc1C(SCCC(=O)O)SCCC(=O)O` gave an inhibition constant (Ki) in experiment [1] of 5.674 µM. Further, the -Log KB in experiment [2] was found to be 5.2.
Taken in the same sequence, the figures for `CCCCc1ccc(CCCCc2ccccc2C(SCCC(=O)O)SCCC(=O)O)cc1` were 4.228 µM and 5.6.
The like results for `CCCCCCCCCCCOc1ccccc1C(SCCC(=O)O)SCCC(=O)O` were, in that order, 0.287 µM and 6.4.
The like results for `CCCCCCCCCCCSc1ccccc1C(SCCC(=O)O)SCCC(=O)O` were, in that order, 0.646 µM and 6.
For the compound `CCCCCCCCCCCCc1cccc(C)c1C(SCCC(=O)O)SCCC(=O)O`, the inhibitory constant (Ki) in experiment [1] was 3.672 µM.
Take `CCCCCCCCCOc1cccc(C(SCCC(=O)O)SCCC(=O)O)c1`: the Ki in experiment [1] amounted to 0.624 µM. The compound also displayed a -Log KB in experiment [2] of 6.
The like results for `CCCCCCCCCCCOc1ccc(Br)cc1C(SCCC(=O)O)SCCC(=O)O` were, in that order, 0.624 µM and 6.
Consider `O=C(O)CCSC(SCCC(=O)O)c1cccc(CCCCCCCCc2ccccc2)c1`, for which the inhibitory constant (Ki) in experiment [1] came out at 0.43 µM. Besides, the -Log KB in experiment [2] came out at 6.
As to `CCOCCOCCOCCOc1ccccc1C(SCCC(=O)O)SCCC(=O)O`, the Ki in experiment [1] is above 20 µM.
The compound `CCCCCCCCCCCCC(SCCC(=O)O)SCCC(=O)O` gave a -Log KB in experiment [2] of 5.2.
